The subject of one series is MDA-MB-231 cells. In words: Colony formation / surviving fraction assay. The note with it: Homo sapiens, two days incubation, colonies counted two weeks later, read-out: IC50 (surviving fraction equaled 50). Format: cell-based. How it is done: MDA-MB-231 cells (ATCC #HTB-26), grown in DMEM plus 15% heat inactivated fetal bovine serum plus 10 mM HEPES pH 7.5, were plated in 60 mm^2 plates (2×10^5 cells per plate). After two days candidate compounds in DMSO at various concentrations were diluted in media and added to individual plates such that the final DMSO concentration in the cell culture media was 0.1%. After two days incubation the culture was trypsinized, cells were washed with media, counted using a hemocytometer and 500 cells, including cell bodies, were plated in 100 mm^2 plates in media. Two weeks later the media was removed and the cell colonies were fixed with methanol for 10 minutes, stained with 1% crystal violet for 10 minutes, washed with water and air dried. Cell colonies were visually counted when there were greater then 50 cells present per colony. Plating efficiency was defined as the average number of colonies formed divided by 500. The surviving fraction was defined as the plating efficiency of a candidate compound divided by the plating efficiency of DMSO multiplied by 100. For candidate compound titrations, the IC50 value was determined by fitting the equation y=Ae^Bx to the data points and extrapolating the concentration where surviving fraction equaled 50. […]

The test system of series [1] is human pancreatic cancer MIA PaCa2. The experiment in a line: Human pancreatic cancer xenograft. The note with it: monotherapy. The class given is in vivo. How it is done: (§1) The efficacy of (−)-trans-3-(5,6-dihydro-4H-pyrrolo[3,2,1-ij]quinolin-1-yl)-4-(1H-indol-3-yl)pyrrolidine-2,5-dione was also tested in xenograft models with several other cancer cell lines: human pancreatic cancer MIA PaCa2 (FIG. 9, Panel B), human prostate cancer PC3 (FIG. 9, Panel C) and human gastric cancer MKN45 (FIG. 9, Panel D). The cells were treated with (−)-trans-3-(5,6-dihydro-4H-pyrrolo[3,2,1-ij]quinolin-1-yl)-4-(1H-indol-3-yl)pyrrolidine-2,5-dione as a monotherapy at indicated concentrations.
(Xenograft models place foreign cells or tissue in a host animal.)

In series [2] the test system is human prostate cancer PC3. In words: Human prostate cancer xenograft. The class given is in vivo. The note with it: monotherapy. How it is done: as §1
Another series concerns the target CAMKIIδ (Homo sapiens, UniProt Q13557). In words: Kinase panel inhibition, CAMKIIδ. Format: biochemical. How it is done: (§2) (−)-trans-3-(5,6-dihydro-4H-pyrrolo[3,2,1-ij]quinolin-1-yl)-4-(1H-indol-3-yl)pyrrolidine-2,5-dione was assessed for its activity to inhibit a large panel (n=230) of human kinases.
Another series concerns the target Flt4 (Homo sapiens, UniProt P35916). The experiment in a line: Kinase panel inhibition, Flt4. The class given is biochemical. How it is done: as §2
Series [3] has as its system panel (n=230) of human kinases. In words: Large panel (n=230) of human kinases. The class given is biochemical. The note with it: n=230 human kinases. How it is done:
as §2

For series [4], the system named is clear cell sarcoma and MiT-associated tumors. In words: Clinical study in patients with clear cell sarcoma and MiT-associated tumors. Format: in vivo, human. An excerpt: The present example describes the inhibition of c-Met Receptor Tyrosine Kinase in Clear Cell Sarcoma and MiT (Microphthalmia Transcription Factor)-Associated Tumors. […] The studies described in the present example used (−)-trans-3-(5,6-dihydro-4H-pyrrolo[3,2,1-ij]quinolin-1-yl)-4-(1H-indol-3-yl)pyrrolidine-2,5,-dione, a small molecule inhibitor of the c-Met receptor tyrosine kinase.
(−)-trans-3-(5,6-dihydro-4H-pyrrolo[3,2,1-ij]quinolin-1-yl)-4-(1H-indol-3-yl)pyrrolidine-2,5,-dione was administered to a patient with clear cell sarcoma. […]
(−)-trans-3-(5,6-dihydro-4H-pyrrolo[3,2,1-ij]quinolin-1-yl)-4-(1H-indol-3-yl)pyrrolidine-2,5,-dione is administered to patients with MiT (Microphthalmia Transcription Factor)-associated tumors. MiT tumors, which can include clear cell sarcoma (CCS), alveolar soft part sarcoma (ASPS) and translocation-associated renal cell carcinoma (RCC), are linked biologically through a common chromosomal abnormality that is responsible for the overexpression of c-Met resulting in the development of these tumors. Tumors with this abnormality are resistant to current therapies and, in the absence of successful surgical resection, are invariably fatal.

In a further series the test system is tumors. The experiment in a line: Clinical studies (tolerability and tumor responses). The class given is in vivo, human. An excerpt:
(−)-trans-3-(5,6-dihydro-4H-pyrrolo[3,2,1-ij]quinolin-1-yl)-4-(1H-indol-3-yl)pyrrolidine-2,5,-dione is a selective inhibitor of c-Met, a receptor tyrosine kinase. When abnormally activated, c-Met plays multiple roles in aspects of human cancer, including cancer cell growth, survival, angiogenesis, invasion and metastasis.

Chain of Flt4 (P35916 25-1363): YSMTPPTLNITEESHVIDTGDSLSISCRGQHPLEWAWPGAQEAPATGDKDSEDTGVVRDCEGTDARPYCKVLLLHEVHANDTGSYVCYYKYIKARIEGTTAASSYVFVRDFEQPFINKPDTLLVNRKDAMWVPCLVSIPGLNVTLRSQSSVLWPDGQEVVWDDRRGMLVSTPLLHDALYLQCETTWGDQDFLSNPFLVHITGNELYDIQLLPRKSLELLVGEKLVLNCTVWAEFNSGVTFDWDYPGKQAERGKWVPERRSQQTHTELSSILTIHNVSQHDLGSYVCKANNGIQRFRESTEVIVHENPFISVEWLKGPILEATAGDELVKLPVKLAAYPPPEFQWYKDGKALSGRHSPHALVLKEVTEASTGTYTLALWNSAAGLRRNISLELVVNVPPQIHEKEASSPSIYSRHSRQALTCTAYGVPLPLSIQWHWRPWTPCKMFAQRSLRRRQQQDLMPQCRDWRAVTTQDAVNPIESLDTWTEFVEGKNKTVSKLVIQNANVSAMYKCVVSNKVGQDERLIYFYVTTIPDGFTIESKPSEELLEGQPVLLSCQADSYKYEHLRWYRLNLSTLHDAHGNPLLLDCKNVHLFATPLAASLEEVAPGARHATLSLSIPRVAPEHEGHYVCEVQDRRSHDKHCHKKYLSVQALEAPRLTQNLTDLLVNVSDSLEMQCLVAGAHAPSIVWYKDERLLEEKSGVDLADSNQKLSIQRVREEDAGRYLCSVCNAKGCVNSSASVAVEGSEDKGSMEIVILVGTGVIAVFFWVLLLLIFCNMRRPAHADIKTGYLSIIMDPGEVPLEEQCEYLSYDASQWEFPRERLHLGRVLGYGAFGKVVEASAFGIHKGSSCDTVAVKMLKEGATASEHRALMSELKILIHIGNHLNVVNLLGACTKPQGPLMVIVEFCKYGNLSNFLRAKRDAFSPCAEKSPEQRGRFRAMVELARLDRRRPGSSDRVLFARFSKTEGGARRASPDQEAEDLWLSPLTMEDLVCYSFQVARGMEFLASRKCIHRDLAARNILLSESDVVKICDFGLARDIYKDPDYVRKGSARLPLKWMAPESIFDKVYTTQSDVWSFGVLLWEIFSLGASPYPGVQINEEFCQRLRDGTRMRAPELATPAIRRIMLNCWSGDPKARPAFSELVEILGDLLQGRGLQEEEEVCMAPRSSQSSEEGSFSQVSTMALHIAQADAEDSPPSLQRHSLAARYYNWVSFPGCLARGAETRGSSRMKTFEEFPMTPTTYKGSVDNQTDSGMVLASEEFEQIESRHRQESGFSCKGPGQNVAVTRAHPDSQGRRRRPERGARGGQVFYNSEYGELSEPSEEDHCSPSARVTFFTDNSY

For the compound `O=C1NC(=O)[C@@H](c2cn3c4c(cccc24)CCC3)[C@@H]1c1c[nH]c2ccccc12` (single isomer, unassigned) [(−)-trans-3-(5,6-dihydro-4H-pyrrolo[3,2,1-ij]quinolin-1-yl)-4-(1H-indol-3-yl)pyrrolidine-2,5-dione], the IC50 (as a rule, the concentration needed to halve the response being measured) was 620 nM in the series with MDA-MB-231 cells, about 10 µM against CAMKIIδ and about 16 µM on Flt4. The tumor growth result in series [1] and in series [2] was “significantly inhibited tumor growth” each time. Moreover, in series [3], the “kinase selectivity in panel” value is recorded as “inhibited only c-Met to a significant degree”. The “patients with stable disease” value in series [4] (120 mg b.i.d., 23 patients enrolled, fourteen evaluable for efficacy) is listed as “ten of the evaluable patients have demonstrated stable disease”. In series [4] (a patient with clear cell sarcoma), the “response as defined by RECIST” value is given as “partial response”. The “tumor responses in clinical studies” value with tumors (broad ranges of tumors and doses) was “tumor responses and prolonged stable disease”. Also, the “tolerability in clinical studies” value with tumors (human, in vivo) is given as “well tolerated”.
